In patent US8530465B2, “1, 2-disubstituted amido-anthraquinone derivatives, preparation method and application thereof” (National Defense Medical Center, priority 2010, dated 2013):

Key:
[1] = tested on: hTERT; assay: Secreted alkaline phosphatase (SEAP) assay, PhTERT-SEAP (H1299); type: cell-based; settings: Homo sapiens, 24 hours; for activity at 1 µM: NCI-H1299, Conc. 1 μM, read-out: Relative SEAP activity (%); for activity at 10 µM: NCI-H1299, Conc. 10 μM; for activity at 10 µM / activity at 100 µM: read-out: Relative SEAP activity (%) (converted); for activity at 100 µM: NCI-H1299, Conc. 100 μM
Outline: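 Stable H1299 clone carrying the −3338 to +1 bp hTERT promoter upstream of SEAP; ~10^4 cells/well treated with varying drug amounts for 24 h at 37° C. Media heat-treated 65° C. 10 min, mixed with diethanolamine/MgCl2/L-homoarginine buffer and 12 mM p-nitrophenyl phosphate final; SEAP activity taken as rate of A405 increase.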

[2] = tested on: SF-268; assay: NCI drug screen, SF-268; type: cell-based, human; settings: SF-268 (CNS Cancer); 1.00E−5 Molar
Method: (§1) In brief, cellular protein levels were determined after 48 hours of drug exposure by sulforhodamine B colorimetry. Through the use of a time 0 cell control, the cell growth can be determined for each cell line thus allowing calculations of the 50% growth inhibitory concentration (GI50), the total growth inhibition (TGI), and the 50% lethal concentration (LC50). Comparison to plates not exposed to drug permits determination of concentration and times of exposure conferring 50% net growth inhibition (GI50), TGI, and 50% cell kill (LC50).
(§2) The screening system in United State National Cancer Institute (NCI) is consisted of 60 kinds of different human cancer cells, which can be used to assay the growth-inhibiting ability or cell toxicity of a compound against various cancer and tumor at a certain concentration.

[3] = tested on: IGROV1; assay: NCI drug screen, IGROV1; type: cell-based, human; settings: IGROV1 (Ovarian Cancer); 1.00E−5 Molar
Method: as §1, §2

[4] = tested on: HOP-62; assay: NCI drug screen, HOP-62; type: cell-based, human; settings: HOP-62 (Non-Small Cell Lung Cancer); 1.00E−5 Molar
Method: as §1, §2

[5] = tested on: SNB-75; assay: NCI drug screen, SNB-75; type: cell-based, human; settings: SNB-75 (CNS Cancer); 1.00E−5 Molar
Method: as §1, §2

[6] = tested on: HCT-15; assay: NCI drug screen, HCT-15; type: cell-based, human; settings: HCT-15 (Colon Cancer); 1.00E−5 Molar
Method: as §1, §2

[7] = tested on: SNB-19; assay: NCI drug screen, SNB-19; type: cell-based, human; settings: SNB-19 (CNS Cancer); 1.00E−5 Molar
Method: as §1, §2

[8] = tested on: M14; assay: NCI drug screen, M14; type: cell-based, human; settings: M14 (Melanoma); 1.00E−5 Molar
Method: as §1, §2

[9] = tested on: ACHN; assay: NCI drug screen, ACHN; type: cell-based, human; settings: ACHN (Renal Cancer); 1.00E−5 Molar
Method: as §1, §2

[10] = tested on: MDA-MB-435; assay: NCI drug screen, MDA-MB-435; type: cell-based, human; settings: MDA-MB-435 (Melanoma); 1.00E−5 Molar
Method: as §1, §2

[11] = tested on: SR; assay: NCI drug screen, SR; type: cell-based, human; settings: SR (Leukemia); 1.00E−5 Molar
Method: as §1, §2

[12] = tested on: HT29; assay: NCI drug screen, HT29; type: cell-based, human; settings: HT29 (Colon Cancer); 1.00E−5 Molar
Method: as §1, §2

[13] = tested on: T-47D; assay: NCI drug screen, T-47D; type: cell-based, human; settings: T-47D (Breast Cancer); 1.00E−5 Molar
Method: as §1, §2

[14] = MTT assay, PhTERT-SEAP (H1299); type: cell-based, human; settings: human, H1299 cells carrying the PhTERT-SEAP reporter, PhTERT-SEAP (H1299); for viability at 1 μM: Conc. 1 μM, read-out: Relative MTT viability (%); for viability at 10 μM: Conc. 10 μM; for viability at 10 μM / viability at 100 μM: read-out: Relative MTT viability (%) (converted); for viability at 100 μM: Conc. 100 μM
Outline: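 Cultured cells received MTT for 4 h at 37 °C, then lysis buffer overnight at 37 °C. Optical density was read at 550 nm.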

[15] = tested on: KM12; assay: NCI drug screen, KM12; type: cell-based, human; settings: KM12 (Colon Cancer); 1.00E−5 Molar
Method: as §1, §2

[16] = tested on: LOX IMVI; assay: NCI drug screen, LOX IMVI; type: cell-based, human; settings: LOX IMVI (Melanoma); 1.00E−5 Molar
Method: as §1, §2

[17] = tested on: SF-295; assay: NCI drug screen, SF-295; type: cell-based, human; settings: SF-295 (CNS Cancer); 1.00E−5 Molar
Method: as §1, §2

[18] = tested on: UO-31; assay: NCI drug screen, UO-31; type: cell-based, human; settings: UO-31 (Renal Cancer); 1.00E−5 Molar
Method: as §1, §2

[19] = tested on: MDA-MB-468; assay: NCI drug screen, MDA-MB-468; type: cell-based, human; settings: MDA-MB-468 (Breast Cancer); 1.00E−5 Molar
Method: as §1, §2

[20] = tested on: OVCAR-3; assay: NCI drug screen, OVCAR-3; type: cell-based, human; settings: OVCAR-3 (Ovarian Cancer); 1.00E−5 Molar
Method: as §1, §2

[21] = tested on: NCI/ADR-RES; assay: NCI drug screen, NCI/ADR-RES; type: cell-based, human; settings: for Growth Percent: NCI/ADR-RES (Ovarian Cancer), 1.00E−5 Molar; for drug-resistance against adriamycin (ADR): human multiple drug-resistant cell NCI/ADR-RES
Method: as §1, §2

[22] = tested on: CAKI-1; assay: NCI drug screen, CAKI-1; type: cell-based, human; settings: CAKI-1 (Renal Cancer); 1.00E−5 Molar
Method: as §1, §2

[23] = tested on: CCRF-CEM; assay: NCI drug screen, CCRF-CEM; type: cell-based, human; settings: CCRF-CEM (Leukemia); 1.00E−5 Molar
Method: as §1, §2

| Compound | activity at 1 µM [1] | activity at 10 µM [1] | activity at 100 µM [1] | Growth Percent [2] | Growth Percent [3] | Growth Percent [4] | Growth Percent [5] | Growth Percent [6] | Growth Percent [7] | Growth Percent [8] | Growth Percent [9] | Growth Percent [12] | viability at 1 μM [14] | viability at 10 μM [14] | Growth Percent [15] | Growth Percent [16] | Growth Percent [17] | Growth Percent [18] | Growth Percent [19] | Growth Percent [20] | further results |
| --- | --- | --- | --- | --- | --- | --- | --- | --- | --- | --- | --- | --- | --- | --- | --- | --- | --- | --- | --- | --- | --- |
| Cc1ccc(C(=O)Nc2c(NC(=O)CCl)ccc3c2C(=O)c2ccccc2C3=O)cc1 [CC-12, 1-(4-methylbenzamido)-2-(chloroacetamido)-anthraquinone] | 110 ± 2.99% | -2.49% | -2.47% | 14.63% | 51.41% | −28.62% | 6.31% | −50.22% | 88.40% | −22.68% | 21.92% | 3.37% | 104 ± 7.83% | 2.77% | −19.53% | −57.05% | 79.70% | 42.91% | −83.42% | −92.86% | Growth Percent [10]: 4.82%; Growth Percent [11]: −19.84%; Growth Percent [13]: −49.46%; Growth Percent [21]: 72.17%; drug-resistance against adriamycin (ADR) [21]: possessed drug-resistance against adriamycin (ADR) |
| Cc1ccc(C(=O)Nc2ccc3c(c2NC(=O)c2ccc(C)cc2)C(=O)c2ccccc2C3=O)cc1 [CC-04, 1,2-bis-(4-methylbenzamido)-anthraquinone] | 108 ± 9.03% | 97.1% | 30.9% | 98.91% | 78.71% | 105.23% | 102.26% | 102.44% | 103.91% | 91.57% | 112.43% | 99.39% | 100 ± 4.4% | 117% | 94.21% | 84.41% | 110.81% | 66.54% | 104.17% | 97.90% | Growth Percent [11]: 87.69%; Growth Percent [13]: 100.00%; viability at 100 μM [14]: 62%; Growth Percent [22]: 94.89%; Growth Percent [23]: 79.02% |
| O=C(CCl)Nc1ccc2c(c1NC(=O)Cc1ccccc1)C(=O)c1ccccc1C2=O [CC-23, 1-[2-(phenyl)acetylamino]-2-(chloroacetamido)-anthraquinone] | 84.8 ± 3.12% | 9.49% | 7.43% | 80.14% | 41.03% | 115.67% | 109.14% | 68.55% | 124.27% | 87.10% | 79.64% | 88.84% | 82 ± 1.79% | 5.94% | 80.59% | 36.29% | 98.48% | 58.19% | 51.02% | 86.38% | Growth Percent [10]: 80.40%; Growth Percent [11]: −31.25%; viability at 100 μM [14]: 3.98%; Growth Percent [23]: 33.97%; Growth Percent [21]: 86.87%; drug-resistance against adriamycin (ADR) [21]: possessed drug-resistance against adriamycin (ADR) |
| Cc1ccc(C(=O)Nc2c(NC(=O)CN3CCN(C)CC3)ccc3c2C(=O)c2ccccc2C3=O)cc1 [CC-43, 1-(4-methylbenzamido)-2-[2-(4-methylpiperazino)acetylamino]-anthraquinone] | 77.4 ± 1.5% | 13.4% | 3.15% | 59.11% | 112.20% | 75.21% | 82.17% | 27.47% | 68.75% | −60.04% | 49.87% | 3.69% | 78.8 ± 3.47% | 29.5% | 44.05% | 1.24% | 89.86% | 70.66% | 7.43% | −6.15% | Growth Percent [10]: 11.15%; Growth Percent [11]: −43.70%; Growth Percent [13]: 52.62%; viability at 100 μM [14]: 8.11%; Growth Percent [22]: 69.76%; Growth Percent [23]: 61.06%; Growth Percent [21]: 66.74%; drug-resistance against adriamycin (ADR) [21]: possessed drug-resistance against adriamycin (ADR) |
| Cc1ccc(C(=O)Nc2c(NC(=O)CN3CCCC3)ccc3c2C(=O)c2ccccc2C3=O)cc1 [CC-38, 1-(4-methylbenzamido)-2-[2-(tetrahydro-1H-1-pyrrolyl)acetylamino]-anthra quinone] | 81.7 ± 4.8% | 59.1% | 3.93% | 86.17% | 106.07% | 113.43% | 66.03% | 73.22% | 108.22% | 88.01% | 82.23% | 31.34% | 88.2 ± 4.94% | 69% | 51.05% | 80.62% | 68.97% | 69.24% | 69.27% | 77.82% | Growth Percent [10]: 79.14%; Growth Percent [13]: 44.33%; viability at 100 μM [14]: 5.05%; Growth Percent [22]: 55.64%; Growth Percent [23]: 39.61%; Growth Percent [21]: 50.86% |
